Data taken from patent publication US8895602B1, “6-pyrazolylamido-3-substituted azabicyclo[3.1.0]hexane compounds as calcium channel inhibitors” (Korea Institute of Science and Technology, priority 2013, dated 2014).

Legend:
[1] = tested on: human lung carcinoma (A-549) cells; test: Anticancer screening, SRB assay, A-549; format: cell-based; details: A 549, 48 hours incubation, concentration not given
Protocol: (§1) Anticancer Effect Screening Test
(§2) All the cancer cells are human-derived tumor cells and were acquired from the Korean Cell Line Bank.
(§3) 2) Measurement of Anticancer Activity
(§4) After incubation in a CO2 incubator for 24 hours, the culture medium was removed and 100 μL of the test compound which was diluted 4-fold was added. After incubation for 48 hours, the cells were fixed by adding 100 μL of formalin solution. Then, the cells were washed 5 times with distilled water and dried at room temperature. After adding 100 μL of 0.4% SRB solution and keeping at room temperature for 30 minutes, the cells were washed 5 times with 1% acetic acid and dried at room temperature.
(§5) To evaluate the anticancer activity of the test compound against the cancer cells, the GI50 value was calculated according to Equation 1 or 2. Anticancer activity (%)=[…] Equation 1
(§6) In Equation 1, T0 represents the number of cells before adding the test compound and T2 represents the number of cells after adding the test compound and incubating for 48 hours. Anticancer activity (%)=[…] Equation 2
(§7) The inhibition of cancer cell growth by the test compound (% inhibition) was determined by data regression using the Lotus program from the values calculated according to Equation 1 and the IC50 value was calculated from the % inhibition.

[2] = tested on: human glioma (U87-MG) cells; test: Anticancer screening, SRB assay, U87-MG; format: cell-based; details: 48 hours incubation, concentration not given
Protocol: as §1, §2, §3, §4, §5, §6, §7

[3] = tested on: human fibroblastoma (HT-1080) cells; test: Anticancer screening, SRB assay, HT-1080; format: cell-based; details: HT1080, 48 hours incubation, concentration not given
Protocol: as §1, §2, §3, §4, §5, §6, §7

[4] = tested on: human esophageal carcinoma (KYSE410) cells; test: Anticancer screening, SRB assay, KYSE410; format: cell-based; details: KYSE410, 48 hours incubation, concentration not given
Protocol: as §1, §2, §3, §4, §5, §6, §7

[5] = tested on: human breast cancer (MCF-7) cells; test: Anticancer screening, SRB assay, MCF-7; format: cell-based; details: MCF-7, 48 hours incubation, concentration not given
Protocol: as §1, §2, §3, §4, §5, §6, §7

[6] = tested on: human prostate carcinoma (LNCaP) cells; test: Anticancer screening, SRB assay, LNCaP; format: cell-based; details: 48 hours incubation, concentration not given
Protocol: as §1, §2, §3, §4, §5, §6, §7

[7] = tested on: human liver carcinoma (HepG2) cells; test: Anticancer screening, SRB assay, HepG2; format: cell-based; details: HepG2, 48 hours incubation, concentration not given
Protocol: as §1, §2, §3, §4, §5, §6, §7

[8] = biological target: T1, α1G T-type calcium channel (Homo sapiens, UniProt O43497); test: Antagonistic activity against T-type calcium channel (FDSS6000 / whole-cell patch clamp in HEK293 cells), α1G; format: cell-based
T1 construct: host or cells: HEK293
T1 sequence (O43497 whole entry): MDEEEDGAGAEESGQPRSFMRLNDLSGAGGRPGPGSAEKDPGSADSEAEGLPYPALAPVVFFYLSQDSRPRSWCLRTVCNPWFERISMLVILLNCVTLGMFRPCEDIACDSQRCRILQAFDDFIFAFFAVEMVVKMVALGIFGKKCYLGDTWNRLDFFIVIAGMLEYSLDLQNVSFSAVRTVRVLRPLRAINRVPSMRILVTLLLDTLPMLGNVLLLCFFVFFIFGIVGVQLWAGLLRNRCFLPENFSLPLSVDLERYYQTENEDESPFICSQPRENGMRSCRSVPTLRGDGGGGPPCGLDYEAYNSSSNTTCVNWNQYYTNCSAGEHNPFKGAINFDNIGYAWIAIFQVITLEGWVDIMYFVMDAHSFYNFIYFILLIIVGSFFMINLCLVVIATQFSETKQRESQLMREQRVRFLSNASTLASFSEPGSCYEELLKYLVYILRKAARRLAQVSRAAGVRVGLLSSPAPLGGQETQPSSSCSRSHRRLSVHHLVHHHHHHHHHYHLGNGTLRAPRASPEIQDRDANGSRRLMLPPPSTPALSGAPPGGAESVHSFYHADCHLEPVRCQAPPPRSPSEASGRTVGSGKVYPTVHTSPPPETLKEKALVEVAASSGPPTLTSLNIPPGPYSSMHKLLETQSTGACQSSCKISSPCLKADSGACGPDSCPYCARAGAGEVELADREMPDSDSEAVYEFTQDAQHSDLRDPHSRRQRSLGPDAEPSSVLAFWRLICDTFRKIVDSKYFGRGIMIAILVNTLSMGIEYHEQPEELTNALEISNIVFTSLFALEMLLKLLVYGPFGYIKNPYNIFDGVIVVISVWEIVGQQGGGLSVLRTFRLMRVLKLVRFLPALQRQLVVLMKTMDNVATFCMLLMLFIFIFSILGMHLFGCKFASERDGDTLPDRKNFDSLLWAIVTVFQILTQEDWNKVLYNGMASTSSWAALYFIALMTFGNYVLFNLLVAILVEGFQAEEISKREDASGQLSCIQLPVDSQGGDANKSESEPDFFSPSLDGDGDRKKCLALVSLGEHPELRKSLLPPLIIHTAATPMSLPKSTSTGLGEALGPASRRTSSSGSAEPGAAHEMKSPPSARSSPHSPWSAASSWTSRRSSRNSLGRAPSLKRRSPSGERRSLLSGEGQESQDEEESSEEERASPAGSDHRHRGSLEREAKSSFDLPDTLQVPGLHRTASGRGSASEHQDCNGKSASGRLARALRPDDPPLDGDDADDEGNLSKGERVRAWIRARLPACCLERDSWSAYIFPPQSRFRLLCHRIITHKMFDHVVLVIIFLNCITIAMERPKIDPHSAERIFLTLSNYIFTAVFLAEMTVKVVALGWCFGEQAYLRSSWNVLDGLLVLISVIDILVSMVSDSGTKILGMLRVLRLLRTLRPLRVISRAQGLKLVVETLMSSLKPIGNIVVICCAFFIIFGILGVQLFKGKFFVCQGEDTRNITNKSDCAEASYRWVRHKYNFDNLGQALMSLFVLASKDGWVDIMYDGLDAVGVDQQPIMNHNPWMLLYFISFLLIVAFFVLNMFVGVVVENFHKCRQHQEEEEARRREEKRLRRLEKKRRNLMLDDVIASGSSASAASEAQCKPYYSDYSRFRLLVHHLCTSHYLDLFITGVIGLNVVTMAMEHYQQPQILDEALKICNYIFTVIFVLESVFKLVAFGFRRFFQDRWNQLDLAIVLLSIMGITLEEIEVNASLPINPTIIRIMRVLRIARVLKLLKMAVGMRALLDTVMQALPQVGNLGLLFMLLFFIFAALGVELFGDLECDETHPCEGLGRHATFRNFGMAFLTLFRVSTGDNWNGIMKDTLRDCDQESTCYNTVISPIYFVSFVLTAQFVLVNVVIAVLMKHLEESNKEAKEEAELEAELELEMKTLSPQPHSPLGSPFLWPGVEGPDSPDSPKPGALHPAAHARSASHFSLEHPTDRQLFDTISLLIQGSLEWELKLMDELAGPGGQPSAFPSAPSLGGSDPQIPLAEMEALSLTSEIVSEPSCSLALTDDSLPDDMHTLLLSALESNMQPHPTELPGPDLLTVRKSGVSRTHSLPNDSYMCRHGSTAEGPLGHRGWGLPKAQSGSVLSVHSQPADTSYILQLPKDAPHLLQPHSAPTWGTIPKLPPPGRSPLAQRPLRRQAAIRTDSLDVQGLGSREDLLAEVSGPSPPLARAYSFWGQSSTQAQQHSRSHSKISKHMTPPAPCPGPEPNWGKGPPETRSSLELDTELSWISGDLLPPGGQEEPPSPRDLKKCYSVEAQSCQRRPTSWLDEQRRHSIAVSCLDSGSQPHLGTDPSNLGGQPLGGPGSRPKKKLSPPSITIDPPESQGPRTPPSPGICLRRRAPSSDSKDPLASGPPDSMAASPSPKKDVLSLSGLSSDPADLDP
Protocol: (§8) Test of Antagonistic Activity Against T-Type Calcium Channel
Then, as secondary screening, the effective inhibitory concentration IC50 for human HEK293 cells was obtained by measuring the potential of Ca^2+.
1) Measurement of T-Type Calcium Channel Activity Using FDSS6000
Subsequently, 10 minutes prior to the FDSS6000 measurement, the cells were washed with HEPES buffer containing 10 mM CaCl2 once and the final volume was adjusted to 81 μL. Separately from the 96-well plate with the cells, two 96-well drug plates were prepared, one containing KCl (final concentration 75 mM) for activating the T-type calcium channel and the other containing the blocking agent (test compound). […] For the FDSS6000 measurement, after baseline recording for 20 seconds, the cells were pretreated with the test compound for 75 seconds and the change in intracellular calcium concentration induced by KCl was measured. The % inhibition by the test compound was calculated as integrated values of the 340/380 ratio relative to the untreated control group. […]
For calcium imaging, the cells were selectively exposed to light of excitation wavelengths (340 nm and 380 nm) with four xenon lamps installed in the FDSS6000 device using a computer-controlled filter wheel. The emitted fluorescence light that passed through a 515 nm long-pass filter was passed through a freezing CCD camera mounted in the device. […]

[9] = biological target: α1H T-type calcium channel (Homo sapiens, UniProt O95180); test: Antagonistic activity against T-type calcium channel, α1H; format: cell-based
Chain of α1H T-type calcium channel (O95180 whole entry): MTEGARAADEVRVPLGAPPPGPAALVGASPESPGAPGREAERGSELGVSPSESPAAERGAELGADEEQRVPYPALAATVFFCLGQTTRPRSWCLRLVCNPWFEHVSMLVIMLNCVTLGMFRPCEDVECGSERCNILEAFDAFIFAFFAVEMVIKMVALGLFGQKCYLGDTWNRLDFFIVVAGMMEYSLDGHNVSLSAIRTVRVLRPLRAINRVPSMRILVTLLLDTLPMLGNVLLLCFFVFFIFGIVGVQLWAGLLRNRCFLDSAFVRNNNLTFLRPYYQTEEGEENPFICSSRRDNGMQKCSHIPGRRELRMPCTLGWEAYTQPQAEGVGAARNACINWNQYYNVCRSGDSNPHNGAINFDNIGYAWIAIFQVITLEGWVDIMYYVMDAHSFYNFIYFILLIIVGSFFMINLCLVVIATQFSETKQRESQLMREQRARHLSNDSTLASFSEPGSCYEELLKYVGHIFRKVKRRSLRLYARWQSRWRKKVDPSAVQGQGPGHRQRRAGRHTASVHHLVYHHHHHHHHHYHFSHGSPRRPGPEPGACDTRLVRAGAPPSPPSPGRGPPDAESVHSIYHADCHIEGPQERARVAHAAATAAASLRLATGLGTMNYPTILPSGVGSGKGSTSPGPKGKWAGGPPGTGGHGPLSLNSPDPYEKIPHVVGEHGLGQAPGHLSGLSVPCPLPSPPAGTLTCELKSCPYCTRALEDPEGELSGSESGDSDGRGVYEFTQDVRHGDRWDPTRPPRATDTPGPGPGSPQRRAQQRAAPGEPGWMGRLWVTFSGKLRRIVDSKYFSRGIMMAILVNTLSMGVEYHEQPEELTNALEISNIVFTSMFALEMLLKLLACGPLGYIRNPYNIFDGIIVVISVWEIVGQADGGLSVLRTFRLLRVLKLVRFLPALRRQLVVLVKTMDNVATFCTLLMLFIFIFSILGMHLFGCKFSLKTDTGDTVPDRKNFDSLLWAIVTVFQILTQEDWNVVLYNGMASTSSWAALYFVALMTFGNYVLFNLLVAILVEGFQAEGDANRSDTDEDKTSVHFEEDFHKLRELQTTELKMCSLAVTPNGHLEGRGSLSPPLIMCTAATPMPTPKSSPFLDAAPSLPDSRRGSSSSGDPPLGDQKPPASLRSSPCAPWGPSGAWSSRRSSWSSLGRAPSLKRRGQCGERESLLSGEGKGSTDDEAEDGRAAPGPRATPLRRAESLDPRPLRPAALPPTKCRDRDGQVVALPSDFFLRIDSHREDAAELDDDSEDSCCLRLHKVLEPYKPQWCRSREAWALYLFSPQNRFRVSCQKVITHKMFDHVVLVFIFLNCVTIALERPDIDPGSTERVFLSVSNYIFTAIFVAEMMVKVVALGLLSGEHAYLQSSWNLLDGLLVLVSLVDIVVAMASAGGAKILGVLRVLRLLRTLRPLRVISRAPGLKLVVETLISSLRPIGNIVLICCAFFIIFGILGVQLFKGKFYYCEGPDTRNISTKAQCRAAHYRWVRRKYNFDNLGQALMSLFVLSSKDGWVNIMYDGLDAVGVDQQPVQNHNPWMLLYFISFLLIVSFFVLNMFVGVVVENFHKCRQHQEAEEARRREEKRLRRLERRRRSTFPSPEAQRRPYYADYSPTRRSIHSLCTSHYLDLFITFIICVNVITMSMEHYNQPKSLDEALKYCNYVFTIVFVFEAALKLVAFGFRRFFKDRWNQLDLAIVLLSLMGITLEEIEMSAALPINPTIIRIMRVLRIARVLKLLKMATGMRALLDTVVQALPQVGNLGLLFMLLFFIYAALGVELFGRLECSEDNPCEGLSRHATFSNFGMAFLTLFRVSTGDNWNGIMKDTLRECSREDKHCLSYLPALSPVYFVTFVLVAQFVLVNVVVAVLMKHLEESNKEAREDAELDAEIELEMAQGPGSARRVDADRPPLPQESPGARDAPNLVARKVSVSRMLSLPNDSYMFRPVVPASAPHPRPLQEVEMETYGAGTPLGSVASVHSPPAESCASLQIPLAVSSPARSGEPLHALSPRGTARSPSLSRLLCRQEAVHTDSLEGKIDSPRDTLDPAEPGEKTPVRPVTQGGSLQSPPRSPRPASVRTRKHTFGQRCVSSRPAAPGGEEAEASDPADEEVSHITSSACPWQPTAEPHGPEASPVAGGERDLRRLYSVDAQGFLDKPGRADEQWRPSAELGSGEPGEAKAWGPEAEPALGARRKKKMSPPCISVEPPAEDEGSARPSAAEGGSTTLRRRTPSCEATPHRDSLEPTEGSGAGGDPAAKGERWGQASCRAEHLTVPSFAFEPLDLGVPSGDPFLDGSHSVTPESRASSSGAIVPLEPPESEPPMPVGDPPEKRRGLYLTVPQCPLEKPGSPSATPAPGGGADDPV
Protocol: as §8
2) Measurement of T-Type Calcium Channel Activity in HEK293 Cells by Whole-Cell Patch Clamp Electrophysiology
The culture medium was replaced with a fresh one every 3-4 days and the cells were subcultured every week. […] The T-type calcium channel current at single cell level was measured by whole-cell patch clamp electrophysiology using an EPC-9 amplifier (HEKA, Germany). For the T-type calcium channel activity measurement, an extracellular solution (140 mM NaCl, 2 mM CaCl2, 10 mM HEPES, pH 7.4) and an intracellular solution (130 mM KCl, 10 mM HEPES, 11 mM EGTA, 5 mM MgATP, pH 7.4) were used. […] Thereafter, the cell membrane potential was fixed to −100 mV and the inward current evoked by the T-type calcium channel activity was measured every 10 seconds at hypopolarization with −30 mV (50 ms duration). Each compound was dissolved in 100% dimethyl sulfoxide (DMSO) to make a 10 mM stock solution. […] More specifically, the cells were treated with each compound together with the extracellular solution for 30-60 seconds and the % inhibition was determined by calculating the inhibition of peak current induced by the compound.

[10] = spinal nerve ligation model; cited from earlier work

inhibition at 10 µM [8]	inhibition at 10 µM [9]	Compound	% inhibition for cancer cells A 549 [1]	% inhibition for cancer cells U87-MG [2]	% inhibition for cancer cells HT1080 [3]	% inhibition for cancer cells KYSE410 [4]	% inhibition for cancer cells MCF-7 [5]	% inhibition for cancer cells LNCaP [6]	% inhibition for cancer cells HepG2 [7]	effect on mechanically and thermally induced pain [10]
–	–	CC(C)Cc1cc(CNC(=O)C2C3CN(CCC(C)(C)C)CC32)nn1-c1ccccc1 (centres unmarked) [Compound 1, 3-[3-(3,3-Dimethylbutyl)-3-azabicyclo[3.1.0]hexane-6-carboxamido]methyl-5-isobutyl-1-phenyl-1H-pyrazole]	94.52%	48.10%	62.86%	62.50%	94.86%	34.74%	87.91%	–
–	–	CC(C)Cc1cc(CNC(=O)C2C3CN(Cc4ccccc4)CC32)nn1-c1ccccc1 (centres unmarked) [Compound 2, 3-(3-Benzyl-3-azabicyclo[3.1.0]hexane-6-carboxamido)methyl-5-isobutyl-1-phenyl-1H-pyrazole]	–	86.45%	87.79%	88.75%	–	84.90%	–	–
60.5%	64.6%	CC(C)Cc1cc(CNC(=O)C2C3CN(CCc4ccc(C(F)(F)F)cc4)CC32)nn1-c1ccccc1 (centres unmarked) [Compound 3, 5-Isobutyl-1-phenyl-3-{3-[4-(trifluoromethyl)phenylethyl]-3-azabicyclo[3.1.0]hexane-6-carboxamido}methyl-1H-pyrazole]	75.64%	89.21%	87.64%	92.33%	85.44%	92.29%	67.82%	–
–	–	CC(C)Cc1cc(CNC(=O)C2C3CN(C(=O)c4ccccc4)CC32)nn1-c1ccccc1 (centres unmarked) [Compound 4, 3-(3-Benzoyl-3-azabicyclo[3.1.0]hexane-6-carboxamido)methyl-5-isobutyl-1-phenyl-1H-pyrazole]	94.52%	56.49%	75.39%	56.84%	95.00%	73.31%	89.44%	–
81%	89.9%	CC(C)Cc1cc(CNC(=O)C2C3CN(C(=O)Cc4ccccc4)CC32)nn1-c1ccccc1 (centres unmarked) [Compound 5, 5-Isobutyl-1-phenyl-3-[3-(2-phenylacetyl)-3-azabicyclo[3.1.0]hexane-6-carboxamido]methyl-1H-pyrazole]	94.61%	45.39%	67.10%	48.62%	95.24%	62.24%	89.16%	–
–	–	CC(C)Cc1cc(C(=O)NCC2C3CN(CCC(C)(C)C)CC23)nn1-c1ccccc1 (centres unmarked) [Compound 7, 3-{2-[3-(3,3-Dimethylbutyl)-3-azabicyclo[3.1.0]hexane-6-yl]methyl}carbamoyl-5-isobutyl-1-phenyl-1H-pyrazole]	93.14%	89.43%	88.79%	86.46%	94.67%	49.98%	98.18%	–
–	–	Cc1ccc(NC(=O)c2ccc(CN3CCN(C)CC3)cc2)cc1Nc1nccc(-c2cccnc2)n1 [Gleevec, reference compound]	94.17%	86.51%	92.04%	75.92%	95.19%	82.56%	90.81%	–
–	–	C#Cc1cccc(Nc2ncnc3cc(OCCOC)c(OCCOC)cc23)c1 [Tarceva, reference compound]	–	55.96%	83.07%	36.30%	–	47.12%	–	–
–	–	CCC1(C)CC(=O)NC1=O (centres unmarked) [ethosuximide]	–	–	–	–	–	–	–	inhibit mechanically and thermally induced pain in a dose-dependent manner
–	–	COCC(=O)O[C@]1(CCN(C)CCCc2nc3ccccc3[nH]2)CCc2cc(F)ccc2[C@@H]1C(C)C [mibefradil]	–	–	–	–	–	–	–	inhibit mechanically and thermally induced pain in a dose-dependent manner
